Experiments:
CYP3A4 = experiment: Induction assay, CYP3A4 mRNA by real-time RT-PCR in LS180 cells; assay type: in vitro ADME, human; conditions: four days, 0.01–10 µM
Protocol: (§1) LS180 cells. The human colon adenocarcinoma cell line LS180 (available at ATCC, Manassas, VA, USA) is one of the standard models for investigating pregnane X receptor (PXR) and aryl hydrocarbon receptor (AhR) mediated induction and was thus used for induction experiments. Cells were cultured under standard cell culture conditions with DMEM supplemented with 10% FCS, 2 mM of glutamine, 100 U/mL of penicillin, 100 µg/mL of streptomycin sulfate, and 0.1 mM of nonessential amino acids.
(§2) For the induction experiments, LS180 cells were seeded in 75 cm^2 culturing flasks and incubated for three days. […]
(§3) RNA was isolated using the GenElute™ Mammalian Total RNA Miniprep Kit, and cDNA was synthesized with the RevertAid™ H Minus First Strand cDNA Synthesis Kit according to the manufacturer's instructions. mRNA expression was quantified by real-time RT-PCR with the LightCycler® 480 (Roche Applied Science, Mannheim, Germany) as described previously. […] Data were evaluated via calibrator-normalized relative quantification with efficiency correction using the LightCycler® 480 software version 1.5 (Roche Applied Science, Mannheim, Germany). […] The following target genes were quantified: CYP1A1, CYP1A2, CYP3A4, ABCB1, ABCC2, ABCG2, SLCO1B1 (coding for OATP1B1), UDP-glucuronosyltransferase 1A3 (UGT1A3), and UGT1A9.

LS180 cells = experiment: Growth inhibition (proliferation) assay in LS180 cells; assay type: cell-based; conditions: Homo sapiens, crystal violet staining
Protocol: as §1
(§4) Growth inhibition assays in LS180 cells were conducted to determine suitable maximum concentrations for the induction assay without profound antiproliferative effects. Proliferation was quantified by crystal violet staining of the surviving cells as described previously. Each experiment was performed at least in triplicate with n = 8 wells for each concentration (0.1–100 µM). The IC20 for proliferation inhibition by venetoclax was 8.4 ± 1.0 µM; thus, the maximum concentration for the induction assay was set to 10 µM, ensuring that about 80% of the cells will survive.

LLC-PK1 = experiment: Growth inhibition assay in LLC-PK1 cells; assay type: cell-based, porcine; conditions: Sus scrofa
Protocol: LLC-PK1 and L-MDR1 cells. L-MDR1 cells, a porcine kidney epithelial cell line over-expressing the human ABCB1 gene and the corresponding parental control cell line LLC-PK1 (available from ATCC, Manassas, VA, USA) were used to assess the sensitivity of cells with and without P-gp over-expression. L-MDR1 cells were kindly provided by A. H. Schinkel (The Netherlands Cancer Institute, Division of Experimental Therapy, Amsterdam, The Netherlands). The cells were cultured under standard cell culture conditions with medium M199 supplemented with 10% FCS, 2 mM of glutamine, 100 U/mL of penicillin, and 100 µg/mL of streptomycin sulfate. To maintain P-gp/ABCB1 expression the culture medium for L-MDR1 was supplemented with 0.64 µM of vincristine. One day before seeding the cells for the growth inhibition assay, both cell lines were fed with a vincristine-free culture medium.
as §4, with “The IC20 for proliferation inhibition by venetoclax was 8.4 ± 1.0 µM; thus, the maximum concentration for the induction assay was set to 10 µM, ensuring that about 80% of the cells will survive.” left out

UGT1A3 = experiment: Induction assay, UGT1A3 mRNA by real-time RT-PCR in LS180 cells; assay type: in vitro ADME, human; conditions: four days, 10 µM
Protocol: as §1, §2, §3

P-gp = experiment: Western blot of P-gp protein expression in LS180 cells; assay type: in vitro ADME, human; conditions: four days, at 1 and 10 µM
Protocol: For the induction experiments, LS180 cells were seeded in 75 cm^2 culturing flasks and incubated for three days. Cells were then treated with a culture medium containing venetoclax (0.01–10 µM) in quintuplicate for four consecutive days. Rifampicin (20 µM) served as a positive control for PXR-driven genes and culture medium as a negative control. All incubation solutions were adjusted to 0.02% DMSO. After harvesting, cells were split for RNA and protein extraction.
To exemplarily verify the effects of venetoclax on mRNA expression, protein expressions of P-gp and CYP1A2 were analyzed in triplicate by SDS polyacrylamide gel electrophoresis (SDS-PAGE) and Western blotting. In brief, cell lysates containing 20 µg protein were mixed with 5× sample buffer (containing Tris–HCl, SDS, DTT, bromophenol blue, and glycerol) and subjected to 10% SDS-PAGE. Afterwards, proteins were electrotransferred to nitrocellulose nitrate membranes. Blots were blocked by incubation for 20–40 min with 5% Slim-Fast® (w/v) in phosphate-buffered saline containing 0.1% Tween®20. […] Bands were visualized by enhanced chemiluminescence using the SuperSignal®West Pico Chemiluminescent Substrate Kit and recorded by FluorChem Q SA AlphaView Version 3.2.2, Cell Biosciences (Santa Clara, CA, USA).

[1] = parameters: method as in PMID 26639348, PMID 22184378, PMID 27520294; conditions: cited from earlier work
ABCC2 = experiment: Induction assay, ABCC2 mRNA by real-time RT-PCR in LS180 cells; assay type: in vitro ADME, human; conditions: four days, 0.01–10 µM
Protocol: as §1, §2, §3

[2] = test system: cell lines used for P-gp, BCRP, and OATP inhibition assays; experiment: Cytotoxicity assay (Cytotoxicity Detection Kit); assay type: cell-based; conditions: up to 100 µM, all cell lines used
Protocol: Prior to P-gp, BCRP, and OATP inhibition assays, venetoclax was tested in the respective cell lines for cytotoxic effects with the Cytotoxicity Detection Kit (Roche Applied Science, Mannheim, Germany). Venetoclax was not cytotoxic up to 100 µM in all cell lines used.

CC1(C)CCC(CN2CCN(c3ccc(C(=O)NS(=O)(=O)c4ccc(NCC5CCOCC5)c([N+](=O)[O-])c4)c(Oc4cnc5[nH]ccc5c4)c3)CC2)=C(c2ccc(Cl)cc2)C1 [Venetoclax]
mRNA expression of CYP3A4 (CYP3A4): unchanged | IC20 (LS180 cells): 8.4 ± 1 µM | IC50 (LLC-PK1; LLC-PK1, LLC-PK1 + LY335979 (1 µM)): 24.9 ± 1 µM | IC50 (LLC-PK1; LLC-PK1, LLC-PK1 parental cells): 21 ± 0.7 µM | mRNA expression of UGT1A3 (UGT1A3): induced | P-gp protein expression (P-gp): suppression | Therapeutic plasma concentrations [1]: about 5 µM | mRNA expression of ABCC2 (ABCC2): unchanged | cytotoxic effects [2]: not cytotoxic
